Laboratory results from ChEMBL document CHEMBL6083229, “Bisubstrate inhibitors of 6-hydroxymethyl-7,8-dihydroptein pyrophosphokinase: Toward cell permeability” (Bioorg Med Chem Lett, 2024).
pKd: −log10 of the molar value. ≈ marks a conversion by molar mass, not a printed value.

Legend:
[1] = system: Staphylococcus epidermidis; assay: Antibacterial activity against Staphylococcus epidermidis assessed as inhibition of bacterial growth in LB media; format: functional
Escherichia coli = assay: Antibacterial activity against Escherichia coli MG1655 assessed as inhibition of bacterial growth in LB media; format: functional
[2] = Binding affinity to HPPK (unknown origin) assessed as dissociation constant by MST analysis; set-up: species or system Bacteria

MIC50 [1]: 120 µM (≈ 72.1 µg/mL)
MIC90 [1]: 240 µM (≈ 144 µg/mL)
MIC ([1]; read-out: MIC100): 400 µM (≈ 240 µg/mL)
MIC10 (Escherichia coli): 400 µM (≈ 240 µg/mL)
MIC30 (Escherichia coli): 2000 µM (≈ 1200 µg/mL)
pKd [2]: 4.89
Structure (SMILES): Nc1nc2[nH]cc(CCCN3CCC(SC[C@H]4O[C@@H](n5cnc6c(N)ncnc65)[C@H](O)[C@@H]4O)CC3C(=O)O)c2c(=O)[nH]1 (stereo partly specified)
